Measurements published in patent publication US7498300B2, “CRFR1 selective ligands” (The Salk Institute for Biological Studies, priority 2001, dated 2009).

Key:
[1] = target: T1, human CRFR1 (Homo sapiens, UniProt P34998); test: Competitive binding assay, CHO cells stably expressing human CRFR1, displacement of 125I-(Nle21,Tyr32) ovine CRF
T1 construct: expressed in transfected cells
T1 sequence (P34998 24-415): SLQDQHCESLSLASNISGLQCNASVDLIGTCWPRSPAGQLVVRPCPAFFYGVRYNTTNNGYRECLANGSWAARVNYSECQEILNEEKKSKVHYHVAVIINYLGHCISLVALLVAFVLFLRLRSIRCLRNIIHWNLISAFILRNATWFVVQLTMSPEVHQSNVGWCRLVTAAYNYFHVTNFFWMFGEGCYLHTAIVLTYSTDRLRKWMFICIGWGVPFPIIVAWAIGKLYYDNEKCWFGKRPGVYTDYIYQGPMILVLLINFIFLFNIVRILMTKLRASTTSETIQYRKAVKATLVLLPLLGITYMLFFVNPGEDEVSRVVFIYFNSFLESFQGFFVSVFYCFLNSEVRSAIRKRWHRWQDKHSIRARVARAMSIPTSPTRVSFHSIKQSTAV
Procedure: Binding affinity is a term used to refer to the strength of interaction between ligand and receptor. […] Ki (inhibitory binding affinity constant) is determined using a “standard” or “tracer” radioactive ligand and thus measures the displacement of the tracer from the receptor or binding protein; it is most properly expressed with reference to such tracer. However, so long as these assays are carefully performed under specific conditions with relatively low concentrations of receptor or the like, the calculated Ki will be substantially the same as its dissociation constant KD. […] It is particularly efficient to test for Ki because only a single tracer need be labelled, e.g. radioiodinated.
Binding assays with cells expressing human CRFR1 are carried out as described in the Chen et al. P.N.A.S., supra. The affinities of test peptides for CRFR1 and CRFR2 stably expressed in CHO cells were determined by competitive displacement of ^125I-(Nle^21, Tyr^32) ovine CRF (for CRFR1) or of [^125I-Tyr^o-]Ucn (for CRFR2) as described.

[2] = target: T2, human CRFR2 (Homo sapiens, UniProt Q13324); test: Competitive binding assay, CHO cells stably expressing human CRFR2, displacement of [125I-Tyr0]Ucn
T2 construct: expressed in transfected cells
T2 sequence (Q13324 1-411): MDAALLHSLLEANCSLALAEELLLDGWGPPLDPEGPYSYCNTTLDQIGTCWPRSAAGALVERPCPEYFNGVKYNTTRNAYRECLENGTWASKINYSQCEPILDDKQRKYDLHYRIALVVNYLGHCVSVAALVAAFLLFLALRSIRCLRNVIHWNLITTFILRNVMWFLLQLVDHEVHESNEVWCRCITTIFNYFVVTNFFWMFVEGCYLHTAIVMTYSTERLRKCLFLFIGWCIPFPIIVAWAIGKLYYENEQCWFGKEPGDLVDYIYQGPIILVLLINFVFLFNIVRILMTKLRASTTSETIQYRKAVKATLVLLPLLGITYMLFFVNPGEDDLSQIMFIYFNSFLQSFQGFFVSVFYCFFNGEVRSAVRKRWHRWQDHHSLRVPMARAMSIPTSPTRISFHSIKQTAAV
Procedure: The affinities of test peptides for CRFR1 and CRFR2 stably expressed in CHO cells were determined by competitive displacement of ^125I-(Nle^21, Tyr^32) ovine CRF (for CRFR1) or of [^125I-Tyr^o-]Ucn (for CRFR2) as described.

[3] = tested on: cultured rat pituitary cells; test: In vitro stimulation of ACTH and β-endorphin secretion by cultured rat pituitary cells; type: cell-based
Procedure: (§1) In vivo testing is carried out using the general procedure set forth in C.

[4] = In vivo lowering of blood pressure on peripheral administration; details: administered peripherally
Procedure: as §1

Substance	binding to CRFR1 (in words) [1]	binding to CRFR2 (in words) [2]	stimulation of the secretion of ACTH and β-END-LI [3]	lowering of blood pressure [4]
(cyclo 31-34)[Ac-Pro^4, D-Phe^12, CML^17, Nle^21,38, Glu^31, Lys^34]-r/hCRF(4-41) [Example 5 E]	binds strongly	only very weakly	stimulates	very significant lowering of blood pressure
(cyclo 31-34)[Ac-Pro^4, D-Phe^12, Nle^14,18,24, Glu^31, Lys^34]-flounder urotensin(4-41) [Example 3 G]	binds strongly	only very weakly	stimulates	very significant lowering of blood pressure
(cyclo 31-34)[Ac-Pro^4, D-Phe^12, Nle^14,18,24, Glu^31, Lys^34]-maggy urotensin(4-41) [Example 3 E]	binds strongly	only very weakly	stimulates	very significant lowering of blood pressure
(cyclo 31-34)[Ac-Pro^4, D-Phe^12, Nle^18,21, Glu^31, Lys^34]-AHC(4-41) [Example 3 A]	bind strongly	only very weakly	strongly stimulates	very significant lowering of blood pressure
(cyclo 31-34)[Ac-Pro^4, D-Phe^12, Nle^21,38, CML^27,36, Glu^31, D-His^32, Lys^34]-r/hCRF(4-41) [Example 6 C D-His^32 analog]	binds strongly	only very weakly	stimulates	very significant lowering of blood pressure
(cyclo 31-34)[Ac-Pro^4, D-Phe^12, Nle^21,38, CML^27,36, Glu^31, Lys^34]-r/hCRF(4-41) [Example 6 C]	binds strongly	only very weakly	stimulates	very significant lowering of blood pressure
(cyclo 31-34)[Ac-Pro^4, D-Phe^12, Nle^21,38, CML^27,37, Glu^31, Lys^34]-r/hCRF(4-41) [Example 6 D]	binds strongly	only very weakly	stimulates	very significant lowering of blood pressure
(cyclo 31-34)[Ac-Pro^4, D-Phe^12, Nle^21,38, CML^27,40, Glu^31, D-Ser^33, Lys^34]-r/hCRF(4-41) [Example 6 H]	–	bind only weakly	stimulates	very significant lowering of blood pressure
(cyclo 31-34)[Ac-Pro^4, D-Phe^12, Nle^21,38, CML^27, Glu^31, D-His^32, Lys^34]-r/hCRF(4-41) [Example 5 F]	binds strongly	only very weakly	stimulates	very significant lowering of blood pressure
(cyclo 31-34)[Ac-Pro^4, D-Phe^12, Nle^21,38, CML^27, Glu^31, Lys^34]-r/hCRF(4-41) [Example 5 C]	binds strongly	only very weakly	stimulates	very significant lowering of blood pressure
(cyclo 31-34)[Ac-Pro^4, D-Phe^12, Nle^21,38, Glu^31, Aib^33, Lys^34]-r/hCRF(4-41) [Example 4]	bind strongly	only very weaker	strongly stimulates	very significant lowering of blood pressure
(cyclo 31-34)[Ac-Pro^4, D-Phe^12, Nle^21,38, Glu^31, Lys^34, CML^37]-r/hCRF(4-41) [Example 5 D]	binds strongly	only very weakly	stimulates	very significant lowering of blood pressure

Continued, in another order:

binding to CRFR1 (in words) [1]	binding to CRFR2 (in words) [2]	Substance	stimulation of the secretion of ACTH and β-END-LI [3]	lowering of blood pressure [4]
binds strongly	only very weakly	(cyclo 31-34)[Ac-Pro^4, CML^19, Nle^21,38, Glu^31, Lys^34]-r/hCRF(4-41) [Example 5 B]	stimulates	very significant lowering of blood pressure
binds strongly	only very weakly	(cyclo 31-34)[Ac-Pro^4, D-Phe^12, CML^14,27, Nle^21,38, Glu^31, Lys^34]-r/hCRF(4-41) [Example 6 A]	stimulates	very significant lowering of blood pressure
binds strongly	only very weakly	(cyclo 31-34)[Ac-Pro^4, D-Phe^12, CML^14, Nle^21,38, Glu^31, Lys^34]-r/hCRF(4-41) [Example 5 A]	stimulates	very significant lowering of blood pressure
binds strongly	only very weakly	(cyclo 31-34)[Ac-Pro^4, D-Phe^12, CML^15, Nle^21,38, Glu^31, Lys^34]-r/hCRF(4-41) [Example 5]	stimulates	very significant lowering of blood pressure
binds strongly	only very weakly	(cyclo 31-34)[Ac-Pro^4, D-Phe^12, CML^18,27, Nle^21,38, Glu^31, Lys^34]-r/hCRF(4-41) [Example 6 B]	stimulates	very significant lowering of blood pressure
binds strongly	only very weakly	(cyclo 31-34)[Ac-Pro^4, D-Phe^12, Nle^18,21, Glu^31, Lys^34]-carp urotensin(4-41) [Example 3 F]	stimulates	very significant lowering of blood pressure
binds strongly	only very weakly	(cyclo 31-34)[Ac-Pro^4, D-Phe^12, Nle^18,21, Glu^31, Lys^34]-sucker urotensin(4-41) [Example 3 B]	stimulates	very significant lowering of blood pressure
binds strongly	only very weakly	(cyclo 31-34)[Ac-Pro^4, D-Phe^12, Nle^21,37,38, Glu^31, Lys^34]-fish CRF(4-41) [Example 3 D]	stimulates	very significant lowering of blood pressure
high affinity	bind only weakly	(cyclo 31-34)[Ac-Pro^4, D-Phe^12, Nle^21,38, CML^27,40, Glu^31, Aib^33, Lys^34]-r/hCRF(4-41) [Example 6 G]	stimulates	very significant lowering of blood pressure
high affinity	bind only weakly	(cyclo 31-34)[Ac-Pro^4, D-Phe^12, Nle^21,38, CML^27,40, Glu^31, D-Ala^33, Lys^34]-r/hCRF(4-41) [Example 6 I]	stimulates	very significant lowering of blood pressure
high affinity	bind only weakly	(cyclo 31-34)[Ac-Pro^4, D-Phe^12, Nle^21,38, CML^27,40, Glu^31, Lys^34]-r/hCRF(4-41) [Example 6 E]	stimulates	very significant lowering of blood pressure
binds strongly	only very weakly	(cyclo 31-34)[Ac-Pro^4, D-Phe^12, Nle^21,38, CML^27,41, Glu^31, Lys^34]-r/hCRF(4-41) [Example 6 F]	stimulates	very significant lowering of blood pressure
